The record followed here is patent publication US9579319B2 (Redx Pharma PLC, priority 2013, dated 2017).

pIC50: −log10 of the molar value. Some results are limits rather than exact numbers.

The test system of this experiment is Hedgehog signalling pathway. Kind of experiment: Gli-reporter NIH3T3 luciferase assay (Hedgehog pathway inhibition). Conditions: NIH3T3; Gli-reporter NIH-3T3 cells, recombinant mouse sonic hedgehog, 24 hours, luminescence; read-out: Gli luc IC50. Type of experiment: cell-based. The essentials: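 Mouse NIH3T3 cells with Gli-responsive luciferase reporter, pre-treated 1 h with compound (top final concentration 1 μM, 0.1% DMSO) in 0.5% calf serum medium. Then stimulated with recombinant mouse sonic hedgehog for 24 h at 37° C. Luminescence read-out (OneGLO), triplicates; IC50 reported.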

For `Cc1nc(C(F)(F)F)c(CN(C)C2CCN(c3nnc(-c4ccnn4C)c4ccccc34)CC2)s1` [Example 96, N-methyl-1-[4-(2-methylpyrazol-3-yl)phthalazin-1-yl]-N-[[2-methyl-4-(trifluoromethyl)thiazol-5-yl]methyl]piperidin-4-amine], the negative-log IC50 (pIC50) (usually −log10 of the IC50, conventionally taken in molar units) is over 8.00. To `O=C(Nc1ccc(F)cc1C(F)(F)F)NC1CCN(c2nnc(-c3ccncc3)c3ccncc23)CC1` [Example 99, 1-[4-fluoro-2-(trifluoromethyl)phenyl]-3-[1-[1-(4-pyridyl)pyrido[3,4-d]pyridazin-4-yl]-4-piperidyl]urea] belongs over 8.00. The figure for `Cc1c(-c2ccnn2C)nnc(N2CCC(NC(=O)Nc3ccc(F)cc3C(F)(F)F)CC2)c1C` [Example 100, 1-[1-[4,5-dimethyl-6-(2-methylpyrazol-3-yl)pyridazin-3-yl]-4-piperidyl]-3-[4-fluoro-2-(trifluoromethyl)phenyl]urea] is 6.70 to 8.00.

Take `CN(C(=O)Nc1ccc(F)cc1F)C1CCN(c2nnc(-c3ccnn3C)c3ncccc23)CC1` [Example 101, 3-(2,4-difluorophenyl)-1-methyl-1-[1-[8-(2-methylpyrazol-3-yl)pyrido[2,3-d]pyridazin-5-yl]-4-piperidyl]urea]: the negative logarithm of the IC50 (pIC50) was under 6.70. To `CN(C1CCN(c2nnc(-c3ccnn3C)c3ccncc23)CC1)S(=O)(=O)c1ccc(F)cc1F` [Example 102, 2,4-difluoro-N-methyl-N-[1-[1-(2-methylpyrazol-3-yl)pyrido[3,4-d]pyridazin-4-yl]-4-piperidyl]benzenesulfonamide] belongs 6.70 to 8.00; to `CN(C1CCN(c2nnc(-c3ccnn3C)c3ccncc23)CC1)S(=O)(=O)c1ccc(F)cc1C(F)(F)F` [Example 103, 4-fluoro-N-methyl-N-[1-[1-(2-methylpyrazol-3-yl)pyrido[3,4-d]pyridazin-4-yl]-4-piperidyl]-2-(trifluoromethyl)benzenesulfonamide], 6.70 to 8.00. The figure for `Cn1nccc1-c1nnc(N2CCC(NC(=O)Nc3ccc(F)cc3F)CC2)c2cnccc12` [Example 104, 1-(2,4-difluorophenyl)-3-[1-[1-(2-methylpyrazol-3-yl)pyrido[3,4-d]pyridazin-4-yl]-4-piperidyl]urea] is 6.70 to 8.00; for `Cn1nccc1-c1nnc(N2CCC(NC(=O)Nc3ccc(F)cc3C(F)(F)F)CC2)c2cnccc12` [Example 105, 1-[4-fluoro-2-(trifluoromethyl)phenyl]-3-[1-[1-(2-methylpyrazol-3-yl)pyrido[3,4-d]pyridazin-4-yl]-4-piperidyl]urea] it is over 8.00; for `Cn1nccc1-c1nnc(N2CCC(NS(=O)(=O)c3ccc(F)cc3C(F)(F)F)CC2)c2cnccc12` [Example 106, 4-fluoro-N-[1-[1-(2-methylpyrazol-3-yl)pyrido[3,4-d]pyridazin-4-yl]-4-piperidyl]-2-(trifluoromethyl)benzenesulfonamide] it is 6.70 to 8.00. The figure for `Cc1c(-c2ccnn2C)nnc(N2CCC(N(C)C(=O)Nc3cnncc3C(F)(F)F)CC2)c1C` [Example 107, 1-[1-[4,5-dimethyl-6-(2-methylpyrazol-3-yl)pyridazin-3-yl]-4-piperidyl]-1-methyl-3-[5-(trifluoromethyl)pyridazin-4-yl]urea] is under 6.70. Regarding `Cc1c(-c2ccnn2C)nnc(N2CCC(NC(=O)NC3(C(F)(F)F)CC3)CC2)c1C` [Example 108, 1-[1-[4,5-dimethyl-6-(2-methylpyrazol-3-yl)pyridazin-3-yl]-4-piperidyl]-3-[1-(trifluoromethyl)cyclopropyl]urea], the negative-log IC50 (pIC50) was 6.70 to 8.00. The figure for `Cn1nccc1-c1nnc(N2CCC(NC(=O)NC3(C(F)(F)F)CC3)CC2)c2ccccc12` [Example 109, 1-[1-[4-(2-methylpyrazol-3-yl)phthalazin-1-yl]-4-piperidyl]-3-[1-(trifluoromethyl)cyclopropyl]urea] is 6.70 to 8.00; for `COc1ccc(-c2nnc(N3CCC(N(C)Cc4ccc(F)cc4C(F)(F)F)CC3)c(C)c2C)cn1` [Example 110, N-[[4-fluoro-2-(trifluoromethyl)phenyl]methyl]-1-[6-(6-methoxy-3-pyridyl)-4,5-dimethyl-pyridazin-3-yl]-N-methyl-piperidin-4-amine] it is 6.70 to 8.00; for `CN(C(=O)Nc1ccc(F)cc1F)C1CCN(c2nnc(-c3ccnn3C)c3ccncc23)CC1` [Example 111, 3-(2,4-difluorophenyl)-1-methyl-1-[1-[1-(2-methylpyrazol-3-yl)pyrido[3,4-d]pyridazin-4-yl]-4-piperidyl]urea] it is 6.70 to 8.00. The figure for `Cc1c(-c2ccnn2C)nnc(N2CCC(N(C)C(=O)Nc3ccc(F)cc3)CC2)c1C` [Example 113, 1-[1-[4,5-dimethyl-6-(2-methylpyrazol-3-yl)pyridazin-3-yl]-4-piperidyl]-3-(4-fluorophenyl)-1-methyl-urea] is under 6.70; for `CN(Cc1ccccc1[N+](=O)[O-])C1CCN(c2nnc(-c3ccnn3C)c3ccccc23)CC1` [Example 114, N-methyl-1-[4-(2-methylpyrazol-3-yl)phthalazin-1-yl]-N-[(2-nitrophenyl)methyl]piperidin-4-amine] it is 6.70 to 8.00; for `Cn1nccc1-c1nnc(N2CCC(NCc3ccccc3S(C)(=O)=O)CC2)c2ccccc12` [Example 115, 1-[4-(2-methylpyrazol-3-yl)phthalazin-1-yl]-N-[(2-methylsulfonylphenyl)methyl]piperidin-4-amine] it is 6.70 to 8.00. To `COc1ccc(-c2nnc(N3CCC(NS(=O)(=O)c4ccc(F)cc4C(F)(F)F)CC3)c(C)c2C)cn1` [Example 117, 4-fluoro-N-[1-[6-(6-methoxy-3-pyridyl)-4,5-dimethyl-pyridazin-3-yl]-4-piperidyl]-2-(trifluoromethyl)benzenesulfonamide] belongs 6.70 to 8.00; to `Cc1cc(-c2nnc(N3CCC(NS(=O)(=O)c4ccc(F)cc4C(F)(F)F)CC3)c(C)c2C)ccn1` [Example 118, N-[1-[4,5-dimethyl-6-(2-methyl-4-pyridyl)pyridazin-3-yl]-4-piperidyl]-4-fluoro-2-(trifluoromethyl)benzenesulfonamide], under 6.70. Regarding `Cc1c(-c2ccncc2)nnc(N2CCC(NS(=O)(=O)c3ccc(F)cc3C(F)(F)F)CC2)c1C` [Example 119, N-[1-[4,5-dimethyl-6-(4-pyridyl)pyridazin-3-yl]-4-piperidyl]-4-fluoro-2-(trifluoromethyl)benzenesulfonamide], the pIC50 is 6.70 to 8.00.

For `COc1ccc(-c2nnc(N3CCC(NCc4ccc(F)cc4C(F)(F)F)CC3)c(C)c2C)cn1` [Example 120, N-[[4-fluoro-2-(trifluoromethyl)phenyl]methyl]-1-[6-(6-methoxy-3-pyridyl)-4,5-dimethyl-pyridazin-3-yl]piperidin-4-amine], the pIC50 is 6.70 to 8.00. On to `COc1cc(-c2nnc(N3CCC(NCc4ccc(F)cc4C(F)(F)F)CC3)c(C)c2C)ccn1` [Example 121, N-[[4-fluoro-2-(trifluoromethyl)phenyl]methyl]-1-[6-(2-methoxy-4-pyridyl)-4,5-dimethyl-pyridazin-3-yl]piperidin-4-amine], for which the negative-log IC50 (pIC50) was under 6.70. To `Cc1cc(-c2nnc(N3CCC(NCc4ccc(F)cc4C(F)(F)F)CC3)c(C)c2C)ccn1` [Example 122, 1-[4,5-dimethyl-6-(2-methyl-4-pyridyl)pyridazin-3-yl]-N-[[4-fluoro-2-(trifluoromethyl)phenyl]methyl]piperidin-4-amine] belongs under 6.70; to `Cc1c(-c2ccncc2)nnc(N2CCC(NCc3ccc(F)cc3C(F)(F)F)CC2)c1C` [Example 123, 1-[4,5-dimethyl-6-(4-pyridyl)pyridazin-3-yl]-N-[[4-fluoro-2-(trifluoromethyl)phenyl]methyl]piperidin-4-amine], 6.70 to 8.00; to `CN(C1CCN(c2nnc(-c3ccnn3C)c3c2CCC3)CC1)S(=O)(=O)c1ccc(F)cc1C(F)(F)F` [Example 124, 4-fluoro-N-methyl-N-[1-[1-(2-methylpyrazol-3-yl)-6,7-dihydro-5H-cyclopenta[d]pyridazin-4-yl]-4-piperidyl]-2-(trifluoromethyl)benzenesulfonamide], 6.70 to 8.00. `CN(C(=O)Nc1ccc(F)cc1C(F)(F)F)C1CCN(c2nnc(-c3ccnn3C)c3c2CCC3)CC1` [Example 125, 3-[4-fluoro-2-(trifluoromethyl)phenyl]-1-methyl-1-[1-[1-(2-methylpyrazol-3-yl)-6,7-dihydro-5H-cyclopenta[d]pyridazin-4-yl]-4-piperidyl]urea]: the pIC50 is over 8.00. Turning to `Cc1c(-c2ccnn2C)nnc(N2CCC(N(C)C(=O)Nc3ccccc3F)CC2)c1C` [Example 126, 1-[1-[4,5-dimethyl-6-(2-methylpyrazol-3-yl)pyridazin-3-yl]-4-piperidyl]-3-(2-fluorophenyl)-1-methyl-urea], the pIC50 is 6.70 to 8.00. Turning to `Cc1c(-c2ccnn2C)nnc(N2CCC(N(C)C(=O)Nc3ccc(F)cc3F)CC2)c1C` [Example 127, 3-(2,4-difluorophenyl)-1-[1-[4,5-dimethyl-6-(2-methylpyrazol-3-yl)pyridazin-3-yl]-4-piperidyl]-1-methyl-urea], the pIC50 is under 6.70. To `Cn1nccc1-c1nnc(N2CCC(NCc3ccc(F)c(C#N)c3)CC2)c2c1CCC2` [Example 128, 2-fluoro-5-[[[1-[1-(2-methylpyrazol-3-yl)-6,7-dihydro-5H-cyclopenta[d]pyridazin-4-yl]-4-piperidyl]amino]methyl]benzonitrile] belongs under 6.70; to `CN(C(=O)NC(C)(C)C)C1CCN(c2nnc(-c3ccnn3C)c3ncccc23)CC1` [Example 129, 3-tert-butyl-1-methyl-1-[1-[8-(2-methylpyrazol-3-yl)pyrido[2,3-d]pyridazin-5-yl]-4-piperidyl]urea], under 6.70. Consider `CN(Cc1ccc(F)cc1C(F)(F)F)C1CCN(c2nnc(-c3ccnn3C)c3ncccc23)CC1` [Example 130, N-[[4-fluoro-2-(trifluoromethyl)phenyl]methyl]-N-methyl-1-[8-(2-methylpyrazol-3-yl)pyrido[2,3-d]pyridazin-5-yl]piperidin-4-amine], for which the pIC50 was under 6.70.
